Holding throughout (format): cell-based
Experiment [1] concerns Salmonella cholerasuis NCTC 5735. The experiment in a line: Antibacterial activity, 50% inhibition of growth, Salmonella cholerasuis NCTC 5735. The following applies: NCTC5735, read-out: IC50 (concentration required for a 50% inhibition of growth). An excerpt: (§1) In the table below the antibacterial activity of the compound of Example 1, the 6-[4'-(3"-aminopropyl)-1'-piperidyl-methyleneamino]penicillanic acid hydrochloride, in the table called EB 686, is compared to that of the known compounds Ampicillin and Mecillinam (a compound of the above mentioned British Pat. No. 1,293,590).
(§2) *IC50 means the concentration required for a 50% inhibition of […]

The subject of experiment [2] is Enterobacter cloacae P 99. The experiment in a line: Antibacterial activity, 50% inhibition of growth, Enterobacter cloacae P 99. The following applies: P99, read-out: IC50 (concentration required for a 50% inhibition of growth).
Source text: as §1, §2

The test system of the next experiment is E.coli HA 2 Leo strain. The experiment in a line: Antibacterial activity, 50% inhibition of growth, E.coli HA 2 Leo strain. The following applies: Escherichia coli, HA2LEOSTRAIN, read-out: IC50 (concentration required for a 50% inhibition of growth).
Source text: as §1, §2

For another experiment, the system named is E.coli W3110 (RTEM). Briefly: Antibacterial activity, 50% inhibition of growth, E.coli W3110 (RTEM). The following applies: Escherichia coli, read-out: IC50 (concentration required for a 50% inhibition of growth).
Source text: as §1, §2

The test system of experiment [3] is Klebsiella pneumoniae AT CC 10273. Briefly: Antibacterial activity, 50% inhibition of growth, Klebsiella pneumoniae AT CC 10273. Particulars: ATCC10273, read-out: IC50 (concentration required for a 50% inhibition of growth).
Source text: as §1, §2

In experiment [4] the test system is Pseudomonas aeruginosa BA 2 Leo strain. The experiment in a line: Antibacterial activity, 50% inhibition of growth, Pseudomonas aeruginosa BA 2 Leo strain. Particulars: BA2LEOSTRAIN, read-out: IC50 (concentration required for a 50% inhibition of growth).
Source text: as §1, §2

Experiment [5] relates to Salmonella typhimurium NCTC 5710. The experiment in a line: Antibacterial activity, 50% inhibition of growth, Salmonella typhimurium NCTC 5710. Particulars: Salmonella enterica, read-out: IC50 (concentration required for a 50% inhibition of growth).
Source text: as §1, §2

Experiment [6] concerns Pseudomonas aeruginosa PS 18s. Briefly: Antibacterial activity, 50% inhibition of growth, Pseudomonas aeruginosa PS 18s. The following applies: PS18S, read-out: IC50 (concentration required for a 50% inhibition of growth).
Source text: as §1, §2

In patent publication US4229443A, “Derivatives of penicillanic acid” (Leo Pharmaceutical Products, Ltd. A/S, priority 1976, dated 1980) one finds IC50 data, which are given here for 6 compounds.

SMILES strings stand for the structures. Converted amounts (≈) assume the structure as drawn. Where a name gives a salt, the structure may show the parent alone.

For `CC1(C)S[C@@H]2[C@H](NC(=O)[C@H](N)c3ccccc3)C(=O)N2[C@H]1C(=O)O` [Ampicillin], the IC50 in experiment [1] is 0.25 µg/mL (≈ 0.715 µM); in experiment [2], over 100 µg/mL; in the experiment with E.coli HA 2 Leo strain, 1.3 µg/mL (≈ 3.72 µM); in the experiment on E.coli W3110 (RTEM), over 100 µg/mL; in experiment [3], 79 µg/mL (≈ 226 µM); in experiment [4], over 100 µg/mL. The IC50 in experiment [5] stood at 0.4 µg/mL (≈ 1.14 µM); in experiment [6], 50 µg/mL (≈ 143 µM).

For `CC1(C)S[C@@H]2[C@H](N=CN3CCC(CCCN)CC3)C(=O)N2[C@H]1C(=O)O` [EB 686, 6-[4'-(3"-aminopropyl)-1'-piperidyl-methyleneamino]-penicillanic acid monohydrochloride], the IC50 in experiment [1] is 0.0063 µg/mL; in experiment [2], 0.02 µg/mL; with E.coli HA 2 Leo strain, 0.016 µg/mL; in the experiment with E.coli W3110 (RTEM), 0.5 µg/mL; in experiment [3] it was 0.04 µg/mL; in experiment [4], 16 µg/mL. Also, the IC50 in experiment [5] was found to be 0.016 µg/mL; in experiment [6] it was 5 µg/mL.

Turning to `CC1(C)S[C@@H]2[C@H](N=CN3CCC(CCCN=[N+]=[N-])CC3)C(=O)N2[C@H]1C(=O)O` [Example 1D, 6-[4'-(3"-azidopropyl)-1'-piperidyl-methyleneamino]-penicillanic acid], the IC50 in the experiment with E.coli HA 2 Leo strain is 0.04 µg/mL (≈ 0.101 µM); in experiment [5], 0.5 µg/mL (≈ 1.27 µM).

On to `CC1(C)S[C@@H]2[C@H](N=CN3CCC(CN=[N+]=[N-])CC3)C(=O)N2[C@H]1C(=O)O` [Example 2D, 6-[4'-azidomethyl-1'-piperidyl-methyleneamino]-penicillanic acid], for which the figures for the IC50 (with E.coli HA 2 Leo strain; in experiment [5]) were 0.05 µg/mL (≈ 0.136 µM) and 0.2 µg/mL (≈ 0.546 µM), respectively.

As for `CC(C)(C)C(=O)OCOC(=O)[C@@H]1N2C(=O)[C@@H](N=CN3CCCC(C(CN)CN)CC3)[C@H]2SC1(C)C` (stereo partly shown) [Example 28F, Pivaloyloxymethyl 6-[(4'-(1",3"-diaminopropyl-2")-hexahydro-1'H-azepin-1'-yl)-methyleneamino]-penicillanate, trihydrochloride], the figures for the IC50 (in the experiment on E.coli HA 2 Leo strain; in experiment [4]; in experiment [5]) were 0.05 µg/mL, 20 µg/mL and 0.05 µg/mL, respectively.

For `CC1(C)S[C@@H]2[C@H](/N=C/N3CCCCCC3)C(=O)N2[C@H]1C(=O)O` [Mecillinam], the IC50 is 0.05 µg/mL (≈ 0.154 µM) in experiment [1]; 0.1 µg/mL (≈ 0.307 µM) in experiment [2]; 0.016 µg/mL (≈ 0.0492 µM) with E.coli HA 2 Leo strain; 2 µg/mL (≈ 6.15 µM) in the experiment with E.coli W3110 (RTEM); about 1 µg/mL (≈ 3.07 µM) in experiment [3]; over 100 µg/mL in experiment [4]. Also, the figures for the IC50 in experiment [5] and in experiment [6] were 0.05 µg/mL (≈ 0.154 µM) and over 100 µg/mL, respectively.
